From patent publication US20160046618A1, “Cyclopropyl Fused Thiazin-2-Amine Compounds as Beta-Secretase Inhibitors and Methods of Use” (AMGEN INC., priority 2014, published 2016) come the findings set out here.

Experiment [1] addresses human recombinant BACE1 (Homo sapiens (Human), UniProt P56817). Description: In vitro enzymatic BACE1 FRET assay. The class given is biochemical. Conditions: read-out: IC50 IP (μM) BACE1 enzyme. An outline of the steps:
(§1)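 Fluorescence from cleavage of a quenched peptide spanning the BACE site (50 nM) was read at 488 nm excitation, 590 nm emission. Purified enzyme (Ni-NTA) and compound reacted for one hour before a Tris stop shifted pH to neutral.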

Experiment [2] has as its target human recombinant BACE2 (Homo sapiens (Human), UniProt Q9Y5Z0). Description: In vitro enzymatic BACE2 FRET assay. Conditions: read-out: IC50 IP (μM) BACE2 enzyme. It counts as biochemical. An outline of the steps: as §1
For experiment [3], the system named is Aβ40 in conditioned medium of cells stably expressing Amyloid Precursor Protein (APP). Nature of the experiment: In vitro BACE-1 cell-based assay (Aβ40 sandwich ELISA). Conditions: read-out: IC50 IP (μM) BACE1 cell. In a few lines: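 Aβ40 in supernatants measured by time-resolved fluorescence sandwich ELISA, with pAb40 as capture and biotin-6E10 as detector antibody, each incubated at 4 °C.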
In general terms: ELISA stands for enzyme-linked immunosorbent assay.

Experiment [4] has as its target Recombinant Cat D (Homo sapiens (Human), UniProt P07339). Nature of the experiment: In vitro enzymatic Cathepsin D (Cat D) FRET assay. It counts as biochemical. Conditions: read-out: IC50 IP (μM) CatD. An outline of the steps:
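Recombinant Cat D expressed in CHO cells, assayed in 0.05 M citrate pH 3.5 with 5 mM CHAPS and 10% DMSO final. Reaction started with 20 nM FRET peptide substrate, incubated one hour, then stopped by Tris buffer to neutral pH; fluorescence read at ex 500/em 580 nm.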

Read-outs that look alike come from different tables or passages of the source.

Chain of human recombinant BACE1 (P56817 46-501): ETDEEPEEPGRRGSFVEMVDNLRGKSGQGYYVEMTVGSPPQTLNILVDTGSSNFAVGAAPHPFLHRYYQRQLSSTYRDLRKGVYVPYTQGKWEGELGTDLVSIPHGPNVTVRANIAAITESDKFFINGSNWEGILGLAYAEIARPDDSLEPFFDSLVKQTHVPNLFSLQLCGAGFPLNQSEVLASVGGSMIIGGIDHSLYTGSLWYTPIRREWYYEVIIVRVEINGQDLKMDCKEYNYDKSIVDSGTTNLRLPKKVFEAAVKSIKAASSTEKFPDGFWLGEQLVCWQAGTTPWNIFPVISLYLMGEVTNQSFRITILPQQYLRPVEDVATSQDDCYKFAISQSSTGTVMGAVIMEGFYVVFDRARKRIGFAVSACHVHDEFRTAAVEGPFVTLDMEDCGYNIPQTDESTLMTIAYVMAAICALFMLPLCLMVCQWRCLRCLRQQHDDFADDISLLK
Chain of human recombinant BACE2 (Q9Y5Z0 63-518): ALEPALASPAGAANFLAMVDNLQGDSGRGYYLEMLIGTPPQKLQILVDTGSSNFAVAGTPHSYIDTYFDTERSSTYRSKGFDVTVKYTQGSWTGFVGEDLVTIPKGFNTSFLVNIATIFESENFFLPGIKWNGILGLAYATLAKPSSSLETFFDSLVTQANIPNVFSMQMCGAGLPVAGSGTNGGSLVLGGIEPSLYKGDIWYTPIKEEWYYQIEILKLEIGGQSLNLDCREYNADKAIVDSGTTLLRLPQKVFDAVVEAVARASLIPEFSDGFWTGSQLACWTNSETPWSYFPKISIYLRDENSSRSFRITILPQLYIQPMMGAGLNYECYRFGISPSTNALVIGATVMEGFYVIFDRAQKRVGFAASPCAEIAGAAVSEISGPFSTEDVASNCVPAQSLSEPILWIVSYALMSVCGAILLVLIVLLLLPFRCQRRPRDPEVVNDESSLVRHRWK
Chain of Recombinant Cat D (P07339 65-412): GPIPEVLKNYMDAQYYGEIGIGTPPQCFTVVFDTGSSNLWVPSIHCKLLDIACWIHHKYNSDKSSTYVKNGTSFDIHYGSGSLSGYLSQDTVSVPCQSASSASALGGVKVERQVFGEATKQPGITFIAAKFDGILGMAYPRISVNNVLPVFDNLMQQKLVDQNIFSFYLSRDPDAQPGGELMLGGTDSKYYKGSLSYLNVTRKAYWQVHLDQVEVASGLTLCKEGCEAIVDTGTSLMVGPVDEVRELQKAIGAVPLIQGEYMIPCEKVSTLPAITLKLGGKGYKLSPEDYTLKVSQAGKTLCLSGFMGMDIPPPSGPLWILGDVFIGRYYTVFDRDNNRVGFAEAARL

Consider `C[C@]1(c2cc(NC(=O)c3ccc(Cl)cn3)cnc2F)N=C(N)S[C@@]2(CO)C[C@H]21` [Example 100, N-(5-((1S,5S,6S)-3-amino-1-(hydroxymethyl)-5-methyl-2-thia-4-azabicyclo[4.1.0]hept-3-en-5-yl)-6-fluoropyridin-3-yl)-5-chloropicolinamide], for which the IC50 in experiment [1] (BACE1 FRET enzyme assay) is 0.0225 µM; in experiment [2] (BACE2 FRET enzyme assay), 0.0038 µM; in experiment [3] (BACE1 cell-based assay) it was 0.0112 µM; in experiment [4] (Cathepsin D FRET enzyme assay), greater than 400 µM.
In the same order, the values of `C[C@]1(c2cc(Nc3ncnc4cc(C#N)cnc34)ccc2F)N=C(N)S[C@@H]2[C@H]1C2(F)F` [Example 101, 4-((3-((1R,5S,6R)-3-amino-7,7-difluoro-5-methyl-2-thia-4-azabicyclo[4.1.0]hept-3-en-5-yl)-4-fluorophenyl)amino)pyrido[3,2-d]pyrimidine-7-carbonitrile] are 0.0197 µM, 0.023 µM, 0.094 µM and 720 µM.
In the same order, the values of `C#CCOc1cnc(C(=O)Nc2ccc(F)c([C@@]3(C)N=C(N)S[C@@H]4[C@H]3C4(F)F)c2)c(C)n1` [Example 102, N-(3-((1R,5S,6R)-3-amino-7,7-difluoro-5-methyl-2-thia-4-azabicyclo[4.1.0]hept-3-en-5-yl)-4-fluorophenyl)-3-methyl-5-(prop-2-yn-1-yloxy)pyrazine-2-carboxamide] are 0.00433 µM, 0.019 µM, 0.058 µM and 361 µM.
In the case of `C#CCOc1cnc2c(Nc3cnc(F)c([C@@]4(C)N=C(N)S[C@@]5(CF)C[C@H]54)c3)nccc2n1` [Example 601, N-(5-((1S,5S,6S)-3-amino-1-(fluoromethyl)-5-methyl-2-thia-4-azabicyclo[4.1.0]hept-3-en-5-yl)-6-fluoro-3-pyridinyl)-2-(2-propyn-1-yloxy)pyrido[3,4-b]pyrazin-5-amine], the IC50 in experiment [1] was determined as 0.000589 µM; in experiment [2], 0.0361 µM; in experiment [3] it was 0.00235 µM; in experiment [4], 1680 µM.
In the same order, the values of `C[C@]1(c2cc(Nc3nccc4nc(OCc5ncco5)cnc34)cnc2F)N=C(N)S[C@@]2(CF)C[C@H]21` [Example 602, N-(5-((1S,5S,6S)-3-amino-1-(fluoromethyl)-5-methyl-2-thia-4-azabicyclo[4.1.0]hept-3-en-5-yl)-6-fluoro-3-pyridinyl)-2-(1,3-oxazol-2-ylmethoxy)pyrido[3,4-b]pyrazin-5-amine] are 0.000871 µM, 0.0371 µM, 0.00204 µM and 605 µM.
The corresponding values for `C#CCOc1cnc(C(=O)Nc2cnc(F)c([C@@]3(C)N=C(N)S[C@@]4(CF)C[C@H]43)c2)c(C)n1` [Example 603, N-(5-((1S,5S,6S)-3-amino-1-(fluoromethyl)-5-methyl-2-thia-4-azabicyclo[4.1.0]hept-3-en-5-yl)-6-fluoro-3-pyridinyl)-3-methyl-5-(2-propyn-1-yloxy)-2-pyrazinecarboxamide] are 0.0016 µM, 0.0132 µM, 0.0037 µM and 336 µM.
In the same order, the values of `C[C@]1(c2cc(Nc3nccc4cc(C#N)cnc34)cnc2F)N=C(N)S[C@@]2(CF)C[C@H]21` [Example 604, 8-((5-((1S,5S,6S)-3-amino-1-(fluoromethyl)-5-methyl-2-thia-4-azabicyclo[4.1.0]hept-3-en-5-yl)-6-fluoro-3-pyridinyl)amino)-1,7-naphthyridine-3-carbonitrile] are 0.00624 µM, 0.00378 µM, 0.00933 µM and 571 µM.
On to `C[C@]1(c2cc(Nc3ncnc4cc(OCc5ncco5)cnc34)cnc2F)N=C(N)S[C@@]2(CF)C[C@H]21` [Example 605, N-(5-((1S,5S,6S)-3-amino-1-(fluoromethyl)-5-methyl-2-thia-4-azabicyclo[4.1.0]hept-3-en-5-yl)-6-fluoro-3-pyridinyl)-7-(1,3-oxazol-2-ylmethoxy)pyrido[3,2-d]pyrimidin-4-amine], for which the IC50 is 0.00178 µM in experiment [1], 0.114 µM in experiment [2], 0.00149 µM in experiment [3] and 1290 µM in experiment [4].
The corresponding values for `C#CCOc1cnc(C(=O)Nc2cnc(F)c([C@@]3(C)N=C(N)S[C@@]4(CF)C[C@H]43)c2)cn1` [Example 606, N-(5-((1S,5S,6S)-3-amino-1-(fluoromethyl)-5-methyl-2-thia-4-azabicyclo[4.1.0]hept-3-en-5-yl)-6-fluoropyridin-3-yl)-5-(prop-2-yn-1-yloxy)pyrazine-2-carboxamide] are 0.00032 µM, 0.00931 µM, 0.000849 µM and 278 µM.
As for `C[C@]1(c2cc(NC(=O)c3cnc(OCc4ncco4)cn3)cnc2F)N=C(N)S[C@@]2(CF)C[C@H]21` [Example 607, N-(5-((1S,5S,6S)-3-amino-1-(fluoromethyl)-5-methyl-2-thia-4-azabicyclo[4.1.0]hept-3-en-5-yl)-6-fluoro-3-pyridinyl)-5-(1,3-oxazol-2-ylmethoxy)-2-pyrazinecarboxamide], the IC50 in experiment [1] was 0.000975 µM; in experiment [2], 0.0237 µM; in experiment [3], 0.000956 µM; in experiment [4], greater than 400 µM.
In the same order, the values of `C[C@]1(c2cc(Nc3ncnc4cc(OCc5ncco5)cnc34)cnc2F)N=C(N)S[C@@]2(CC#N)C[C@H]21` [Example 608, ((1R,5S,6S)-3-amino-5-(2-fluoro-5-((7-(1,3-oxazol-2-ylmethoxy)pyrido[3,2-d]pyrimidin-4-yl)amino)-3-pyridinyl)-5-methyl-2-thia-4-azabicyclo[4.1.0]hept-3-en-1-yl)acetonitrile] are 0.00285 µM, 0.154 µM, 0.00174 µM and greater than 400 µM.
In the same order, the values of `C[C@]1(c2cc(NC(=O)c3ccc(OCC(F)(F)C(F)F)cn3)cnc2F)N=C(N)S[C@@]2(CF)C[C@H]21` [Example 609, N-(5-((1S,5S,6S)-3-amino-1-(fluoromethyl)-5-methyl-2-thia-4-azabicyclo[4.1.0]hept-3-en-5-yl)-6-fluoro-3-pyridinyl)-5-(2,2,3,3-tetrafluoropropoxy)-2-pyridinecarboxamide] are 0.00344 µM, 0.466 µM, 0.0194 µM and greater than 400 µM.
The corresponding values for `C[C@]1(c2cc(NC(=O)c3cnc(OCC(F)(F)C(F)F)cn3)cnc2F)N=C(N)S[C@@]2(CF)C[C@H]21` [Example 610, N-(5-((1S,5S,6S)-3-amino-1-(fluoromethyl)-5-methyl-2-thia-4-azabicyclo[4.1.0]hept-3-en-5-yl)-6-fluoro-3-pyridinyl)-5-(2,2,3,3-tetrafluoropropoxy)-2-pyrazinecarboxamide] are 0.00178 µM, 0.193 µM, 0.00597 µM and greater than 400 µM.
With `C#CCOc1cnc2c(Nc3cnc(OC)c([C@@]4(C)N=C(N)S[C@@]5(CF)C[C@H]54)c3)nccc2n1` [Example 611, N-(5-((1S,5S,6S)-3-amino-1-(fluoromethyl)-5-methyl-2-thia-4-azabicyclo[4.1.0]hept-3-en-5-yl)-6-methoxy-3-pyridinyl)-2-(2-propyn-1-yloxy)pyrido[3,4-b]pyrazin-5-amine], the IC50 is 0.00663 µM in experiment [1], 0.208 µM in experiment [2], 0.00649 µM in experiment [3] and greater than 400 µM in experiment [4].
The corresponding values for `[2H]C([2H])([2H])C#CC([2H])([2H])Oc1cnc2c(Nc3cnc(F)c([C@@]4(C)N=C(N)S[C@@]5(CF)C[C@H]54)c3)nccc2n1` [Example 613, N-(5-((1S,5S,6S)-3-amino-1-(fluoromethyl)-5-methyl-2-thia-4-azabicyclo[4.1.0]hept-3-en-5-yl)-6-fluoro-3-pyridinyl)-2-((~2~H_5_)-2-butyn-1-yloxy)pyrido[3,4-b]pyrazin-5-amine] are 0.000555 µM, 0.0123 µM, 0.00098 µM and 709 µM.
The corresponding values for `Cc1nc(OCC(F)(F)F)cnc1C(=O)Nc1cc(F)c(F)c([C@@]2(C)N=C(N)S[C@@]3(CF)C[C@H]32)c1` [Example 614, N-(3-((1S,5S,6S)-3-amino-1-(fluoromethyl)-5-methyl-2-thia-4-azabicyclo[4.1.0]hept-3-en-5-yl)-4,5-difluorophenyl)-3-methyl-5-(2,2,2-trifluoroethoxy)-2-pyrazinecarboxamide] are 0.00361 µM, 0.101 µM, 0.0755 µM and 340 µM.

As a reminder, the IC50 is the concentration at which inhibition is half-maximal.
